In ChEMBL document CHEMBL1137005 (Bioorg Med Chem Lett, 2009):

Legend:
[1] = biological target: T1, Bifunctional epoxide hydrolase 2 (Homo sapiens, UniProt P34913); experiment: Inhibition of human soluble epoxide hydrolase in HEK293 cells assessed as DHET production; assay type: cell-based
T1 sequence (P34913 whole entry): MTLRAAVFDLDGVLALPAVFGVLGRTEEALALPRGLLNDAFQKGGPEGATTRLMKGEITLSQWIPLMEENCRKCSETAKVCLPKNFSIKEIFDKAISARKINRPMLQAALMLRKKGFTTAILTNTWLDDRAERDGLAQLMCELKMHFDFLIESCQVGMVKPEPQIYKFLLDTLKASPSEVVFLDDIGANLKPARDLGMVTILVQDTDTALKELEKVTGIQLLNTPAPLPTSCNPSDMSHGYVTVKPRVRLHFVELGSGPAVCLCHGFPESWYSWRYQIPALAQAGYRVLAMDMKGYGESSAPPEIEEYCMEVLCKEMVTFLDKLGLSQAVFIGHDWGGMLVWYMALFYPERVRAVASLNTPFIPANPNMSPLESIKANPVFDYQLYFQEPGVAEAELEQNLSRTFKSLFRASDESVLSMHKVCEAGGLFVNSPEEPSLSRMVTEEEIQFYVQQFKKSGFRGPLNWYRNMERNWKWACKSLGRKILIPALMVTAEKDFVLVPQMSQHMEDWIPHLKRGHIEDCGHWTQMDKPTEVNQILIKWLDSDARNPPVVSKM

[2] = biological target: T2, Bifunctional epoxide hydrolase 2 (Rattus norvegicus, UniProt P80299); experiment: Inhibition of rat soluble epoxide hydrolase
T2 sequence (P80299 whole entry): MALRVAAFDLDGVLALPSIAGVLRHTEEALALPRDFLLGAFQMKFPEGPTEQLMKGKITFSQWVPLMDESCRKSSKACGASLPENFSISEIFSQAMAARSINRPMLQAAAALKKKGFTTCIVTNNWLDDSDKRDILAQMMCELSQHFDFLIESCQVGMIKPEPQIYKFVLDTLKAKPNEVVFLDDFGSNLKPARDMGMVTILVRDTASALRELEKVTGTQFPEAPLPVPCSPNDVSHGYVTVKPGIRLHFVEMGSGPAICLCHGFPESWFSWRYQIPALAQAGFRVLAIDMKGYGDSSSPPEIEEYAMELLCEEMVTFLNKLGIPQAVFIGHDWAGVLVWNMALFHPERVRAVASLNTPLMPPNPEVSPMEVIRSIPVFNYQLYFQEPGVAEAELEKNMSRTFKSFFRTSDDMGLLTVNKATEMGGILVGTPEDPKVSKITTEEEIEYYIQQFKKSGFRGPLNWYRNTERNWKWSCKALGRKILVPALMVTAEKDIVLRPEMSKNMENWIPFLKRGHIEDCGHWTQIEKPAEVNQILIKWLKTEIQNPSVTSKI

[3] = biological target: T1, Bifunctional epoxide hydrolase 2; experiment: Inhibition of human soluble epoxide hydrolase
[4] = biological target: Sodium channel protein type 5 subunit alpha (Homo sapiens, UniProt Q14524); experiment: Inhibition of Voltage-gated sodium channel subunit alpha Nav1.5
[5] = biological target: T3, Epoxide hydrolase 1 (Homo sapiens, UniProt P07099); experiment: Inhibition of human microsomal epoxide hydrolase
T3 sequence (P07099 whole entry): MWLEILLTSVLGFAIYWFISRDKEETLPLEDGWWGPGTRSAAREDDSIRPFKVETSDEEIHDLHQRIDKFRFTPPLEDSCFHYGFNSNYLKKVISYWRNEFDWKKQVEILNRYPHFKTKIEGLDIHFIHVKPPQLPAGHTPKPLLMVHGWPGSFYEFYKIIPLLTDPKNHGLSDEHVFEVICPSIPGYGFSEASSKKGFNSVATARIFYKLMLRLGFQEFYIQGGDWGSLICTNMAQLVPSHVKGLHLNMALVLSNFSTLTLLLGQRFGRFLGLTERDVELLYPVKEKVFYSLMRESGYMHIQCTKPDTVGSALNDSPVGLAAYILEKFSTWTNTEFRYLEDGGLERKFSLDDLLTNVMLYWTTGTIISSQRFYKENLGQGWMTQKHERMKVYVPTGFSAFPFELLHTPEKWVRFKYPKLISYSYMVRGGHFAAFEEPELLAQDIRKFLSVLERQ

[6] = biological target: Cytochrome P450 3A4 (Homo sapiens, UniProt P08684); experiment: Inhibition of CYP3A4; assay type: ADME
[7] = biological target: Cytochrome P450 2D6 (Homo sapiens, UniProt P10635); experiment: Inhibition of CYP2D6; assay type: ADME
[8] = Binding affinity to […] channel diltiazem binding site
[9] = Inhibition of potassium channel IKr
[10] = biological target: Cytochrome P450 2C9 (Homo sapiens, UniProt P11712); experiment: Inhibition of CYP2C9; assay type: ADME
[11] = Half life in rat at 1 mg/kg, iv and 2 mg/kg, po; assay type: ADME, organism-based; settings: in vivo
[12] = Bioavailability in rat at 1 mg/kg, iv and 2 mg/kg, po; assay type: ADME, organism-based; settings: in vivo
[13] = Clearance in rat at 1 mg/kg, iv and 2 mg/kg, po; assay type: ADME, organism-based; settings: in vivo
[14] = Volume of distribution at steady state in rat at 1 mg/kg, iv and 2 mg/kg, po; assay type: ADME, organism-based; settings: in vivo, read-out: Vdss
[15] = system: Blood; experiment: Inhibition of DHET production in rat whole blood at 1 uM after 1 hr; assay type: functional; design: Activity: scale not given: the % may be the effect or the level left
[16] = biological target: Voltage-dependent L-type calcium channel subunit alpha-1C (Homo sapiens, UniProt Q13936); experiment: Activity at Cav 1.2 channel
Sequence of Voltage-dependent L-type calcium channel subunit alpha-1C (Q13936 whole entry): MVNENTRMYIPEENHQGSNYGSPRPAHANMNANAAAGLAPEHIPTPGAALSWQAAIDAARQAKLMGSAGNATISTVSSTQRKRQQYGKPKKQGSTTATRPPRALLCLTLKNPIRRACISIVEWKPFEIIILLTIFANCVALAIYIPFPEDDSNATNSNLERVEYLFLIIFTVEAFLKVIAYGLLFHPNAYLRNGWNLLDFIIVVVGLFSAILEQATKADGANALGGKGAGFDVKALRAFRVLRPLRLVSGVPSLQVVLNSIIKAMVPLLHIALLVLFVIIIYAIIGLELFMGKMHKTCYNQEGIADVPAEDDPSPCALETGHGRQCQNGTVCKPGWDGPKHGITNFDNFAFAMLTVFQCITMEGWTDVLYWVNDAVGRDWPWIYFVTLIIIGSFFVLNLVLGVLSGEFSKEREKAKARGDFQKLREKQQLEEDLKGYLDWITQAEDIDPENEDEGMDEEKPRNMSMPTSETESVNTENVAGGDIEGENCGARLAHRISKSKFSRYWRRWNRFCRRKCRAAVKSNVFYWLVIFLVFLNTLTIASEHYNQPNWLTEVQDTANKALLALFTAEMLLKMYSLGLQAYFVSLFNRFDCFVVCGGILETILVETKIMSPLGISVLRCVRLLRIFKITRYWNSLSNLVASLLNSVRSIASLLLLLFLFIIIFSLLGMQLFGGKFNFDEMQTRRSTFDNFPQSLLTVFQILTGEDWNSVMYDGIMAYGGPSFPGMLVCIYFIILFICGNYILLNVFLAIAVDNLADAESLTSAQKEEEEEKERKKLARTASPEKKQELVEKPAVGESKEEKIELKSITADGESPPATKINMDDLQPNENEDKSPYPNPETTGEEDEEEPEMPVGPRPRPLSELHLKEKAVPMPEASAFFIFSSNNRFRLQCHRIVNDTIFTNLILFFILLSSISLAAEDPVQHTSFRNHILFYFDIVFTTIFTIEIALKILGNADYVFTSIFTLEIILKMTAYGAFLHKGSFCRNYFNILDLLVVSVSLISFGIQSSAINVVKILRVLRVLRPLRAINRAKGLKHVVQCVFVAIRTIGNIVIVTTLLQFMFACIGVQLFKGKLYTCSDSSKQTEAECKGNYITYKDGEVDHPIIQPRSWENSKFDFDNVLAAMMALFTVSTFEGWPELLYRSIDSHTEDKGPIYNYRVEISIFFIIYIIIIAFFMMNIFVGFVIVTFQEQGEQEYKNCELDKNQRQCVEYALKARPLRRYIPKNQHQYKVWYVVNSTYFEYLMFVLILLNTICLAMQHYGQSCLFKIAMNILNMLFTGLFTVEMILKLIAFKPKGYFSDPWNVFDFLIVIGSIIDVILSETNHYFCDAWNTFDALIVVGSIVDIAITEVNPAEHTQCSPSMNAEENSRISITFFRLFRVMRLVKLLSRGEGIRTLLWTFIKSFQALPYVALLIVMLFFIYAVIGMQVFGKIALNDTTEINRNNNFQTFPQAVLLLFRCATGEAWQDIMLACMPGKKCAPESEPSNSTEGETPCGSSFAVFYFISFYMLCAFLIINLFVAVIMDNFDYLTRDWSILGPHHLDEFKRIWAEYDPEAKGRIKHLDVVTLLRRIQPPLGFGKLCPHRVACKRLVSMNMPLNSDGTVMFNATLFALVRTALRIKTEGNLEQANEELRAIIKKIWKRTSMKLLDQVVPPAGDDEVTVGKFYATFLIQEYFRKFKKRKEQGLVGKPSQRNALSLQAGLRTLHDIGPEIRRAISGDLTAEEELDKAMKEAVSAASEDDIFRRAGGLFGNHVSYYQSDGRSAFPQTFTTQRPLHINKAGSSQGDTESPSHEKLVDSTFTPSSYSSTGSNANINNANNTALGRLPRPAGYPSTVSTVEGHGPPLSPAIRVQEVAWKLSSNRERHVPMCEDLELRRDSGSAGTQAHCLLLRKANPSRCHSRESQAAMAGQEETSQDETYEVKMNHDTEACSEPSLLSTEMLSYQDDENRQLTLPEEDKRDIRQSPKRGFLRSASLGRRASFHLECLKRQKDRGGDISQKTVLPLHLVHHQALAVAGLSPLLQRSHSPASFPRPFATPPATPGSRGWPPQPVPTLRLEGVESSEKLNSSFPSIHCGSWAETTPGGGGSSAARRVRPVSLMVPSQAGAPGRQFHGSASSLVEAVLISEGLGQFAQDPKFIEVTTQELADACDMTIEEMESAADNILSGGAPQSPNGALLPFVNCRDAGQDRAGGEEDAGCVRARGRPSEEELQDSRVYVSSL

Sequence of Cytochrome P450 2D6 (P10635 whole entry): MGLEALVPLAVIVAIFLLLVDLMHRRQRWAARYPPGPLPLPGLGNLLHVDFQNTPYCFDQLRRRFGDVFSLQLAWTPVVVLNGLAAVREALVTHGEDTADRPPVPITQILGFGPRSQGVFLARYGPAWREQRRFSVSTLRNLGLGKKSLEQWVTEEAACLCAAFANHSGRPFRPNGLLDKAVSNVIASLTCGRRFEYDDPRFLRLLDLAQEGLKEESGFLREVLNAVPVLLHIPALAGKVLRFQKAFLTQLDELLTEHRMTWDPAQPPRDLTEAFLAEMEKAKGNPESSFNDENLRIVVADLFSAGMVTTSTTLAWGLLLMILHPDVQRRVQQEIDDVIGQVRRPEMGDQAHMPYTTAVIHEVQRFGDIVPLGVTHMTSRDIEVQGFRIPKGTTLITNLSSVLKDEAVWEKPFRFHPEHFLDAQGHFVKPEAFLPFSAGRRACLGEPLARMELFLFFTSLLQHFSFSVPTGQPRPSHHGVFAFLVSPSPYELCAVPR
Sequence of Cytochrome P450 2C9 (P11712 whole entry): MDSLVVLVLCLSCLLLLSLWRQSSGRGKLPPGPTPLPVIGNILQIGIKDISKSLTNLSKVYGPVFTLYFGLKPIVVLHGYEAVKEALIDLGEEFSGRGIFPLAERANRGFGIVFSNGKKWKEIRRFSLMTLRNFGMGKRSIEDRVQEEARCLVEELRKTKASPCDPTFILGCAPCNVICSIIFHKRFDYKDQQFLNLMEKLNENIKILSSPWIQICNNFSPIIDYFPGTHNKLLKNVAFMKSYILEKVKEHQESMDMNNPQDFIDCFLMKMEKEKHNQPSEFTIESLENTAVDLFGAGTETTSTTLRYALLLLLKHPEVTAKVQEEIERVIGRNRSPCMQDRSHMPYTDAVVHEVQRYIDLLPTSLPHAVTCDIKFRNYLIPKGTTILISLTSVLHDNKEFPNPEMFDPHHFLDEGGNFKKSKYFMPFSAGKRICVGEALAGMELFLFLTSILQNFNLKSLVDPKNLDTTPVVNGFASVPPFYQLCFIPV
Sequence of Cytochrome P450 3A4 (P08684 whole entry): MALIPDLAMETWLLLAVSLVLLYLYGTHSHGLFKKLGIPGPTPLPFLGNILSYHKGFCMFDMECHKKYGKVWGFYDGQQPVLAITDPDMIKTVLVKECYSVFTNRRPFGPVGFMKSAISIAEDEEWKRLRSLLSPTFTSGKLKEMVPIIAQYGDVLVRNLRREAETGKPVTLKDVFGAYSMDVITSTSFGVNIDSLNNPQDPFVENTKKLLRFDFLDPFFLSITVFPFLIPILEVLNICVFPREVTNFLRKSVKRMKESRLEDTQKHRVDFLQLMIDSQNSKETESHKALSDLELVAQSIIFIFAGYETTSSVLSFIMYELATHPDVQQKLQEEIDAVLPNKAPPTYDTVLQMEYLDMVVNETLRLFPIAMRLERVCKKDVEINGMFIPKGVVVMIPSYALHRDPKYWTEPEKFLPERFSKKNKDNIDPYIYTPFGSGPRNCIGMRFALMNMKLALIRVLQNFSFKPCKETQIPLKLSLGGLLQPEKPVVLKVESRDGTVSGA

Structure (SMILES)	IC50 [1] [µM]	IC50 [2] [µM]	IC50 [3] [µM]	IC50 [4] [µM]	IC50 [5] [µM]	IC50 [6] [µM]	IC50 [7] [µM]	IC50 [8] [µM]	IC50 [9] [µM]	IC50 [10] [µM]	half-life [11] [h]	bioavailability [12] [%]	clearance [13] [mL/min/kg]	Vd [14] [L/kg]	Activity [15] [%]	inhibition at 1 µM ([15]; Rattus norvegicus, Blood, 1 h) [%]	IC50 [16] [µM]	IC50 ([1]; hek293) [µM]
O=C(CCc1ccccc1)N1CCC2(CCc3cc(F)ccc3O2)CC1	0.003	0.01	0.007	< 10	> 100	> 10	< 10	3	6	< 10								
O=C1CC2(CCN(C(=O)N[C@H]3C[C@@H]3c3ccccc3)CC2)Oc2ccccc21	0.003	0.009	0.003	> 10		> 10	> 10	> 30	14	10								
CS(=O)(=O)c1ccc2c(c1)CCC1(CCN(C(=O)Cc3ccc(Cl)cc3Cl)CC1)O2		0.004						> 30	0.8		2.6	67	0.7	0.15				
O=C1CC2(CCN(C(=O)NC3CCc4ccccc4CC3)CC2)Oc2ccccc21		0.028	0.008					5	5									
CS(=O)(=O)c1ccc2c(c1)CCC1(CCN(C(=O)N[C@H]3C[C@@H]3c3ccccc3)CC1)O2	< 0.001	0.023	0.003	> 10	24	> 10	> 10	28	15	> 10								
O=C(c1ccc(C(F)(F)F)cc1)N1CCC2(CCc3ccccc3O2)CC1	< 0.001	0.01	0.004	> 10	22	> 10	> 10	2	1	> 10					48			
CS(=O)(=O)c1ccc2c(c1)CCC1(CCN(C(=O)N[C@H]3C[C@@H]3c3ccccc3)CC1)O2.Cl (racemic)											3.9	86	0.7	0.23		32		
O=C1CC2(CCN(C(=O)NC3CCc4ccccc43)CC2)Oc2ccccc21 (racemic)	0.03	0.035	0.02	< 10	28	> 10	> 10	6	6	< 10								
O=C(N[C@H]1C[C@@H]1c1ccccc1)N1CCC2(CCc3cc(F)ccc3O2)CC1 (racemic)	< 0.001	0.018	0.003	> 10	> 100	> 10	> 10	2	7	< 10								
CS(=O)(=O)c1ccc2c(c1)C(=O)CC1(CCN(C(=O)N[C@@H]3CC[C@@H](c4ccccc4)C3)CC1)O2 (racemic)		0.021	0.007	> 10	10	> 10	> 10	18	3	< 10								
O=C1CC2(CCN(C(=O)NC3CCc4ccccc4C3)CC2)Oc2ccccc21 (racemic)		0.039	0.005	1	26	> 10	> 10	9	12	> 10								
Cn1nccc1-c1ccc2c(c1)C(=O)CC1(CCN(C(=O)N[C@H]3C[C@@H]3c3ccccc3)CC1)O2 (racemic)	< 0.001	0.021	0.004	> 10	15	> 10	> 10		4	> 10							28	
Cn1nccc1Nc1ccc2c(c1)C(=O)CC1(CCN(C(=O)N[C@H]3C[C@@H]3c3ccccc3)CC1)O2 (racemic)	< 0.001	0.013	0.003	> 10	> 100	> 10	> 10		2	10							26	
CS(=O)(=O)c1ccc2c(c1)C(=O)CC1(CCN(C(=O)N[C@H]3C[C@@H]3c3ccccc3)CC1)O2 (racemic)		0.012	0.004	> 10		> 10	> 10	> 26	4	> 10	2.6	49	1	0.2				
O=C1CC2(CCN(C(=O)N[C@H]3C[C@@H]3c3ccccc3)CC2)Oc2ccc(-c3ccncc3)cc21 (racemic)		0.007	0.001	> 10	> 100	< 10	< 10	4	0.2	< 10								
O=C(N[C@H]1C[C@@H]1c1ccccc1)N1CCC2(CCc3ccccc3O2)CC1 (racemic)		0.011	0.004	> 10	> 100	> 10	> 10	6	15	< 10					20			
CS(=O)(=O)c1ccc2c(c1)CCC1(CCCN(C(=O)N[C@H]3C[C@@H]3c3ccccc3)CC1)O2 (relative stereo)	0.003	0.049	0.011	> 10	55	> 10	> 10		2	> 10							> 30	
O=C1CC2(CCN(C(=O)N[C@H]3C[C@@H]3c3ccccc3)CC2)Oc2cccnc21 (relative stereo)	0.004	0.02	0.008	> 10	> 100	> 10	> 10		> 30						12		> 30	
O=C1CC2(CCN(C(=O)N[C@H]3C[C@@H]3c3ccccc3)CC2)Oc2ccccc21 (relative stereo)		0.029	0.011	> 10	> 100	> 10	> 10		17	> 10								0.003
O=C(N[C@H]1C[C@@H]1c1ccccc1)N1CCC2(CCc3ncccc3O2)CC1 (relative stereo)	< 0.001	0.021	0.005	> 10	> 100	> 10	> 10		> 30	> 10					9.2		20	
O=C(N[C@H]1C[C@@H]1c1ccccc1)N1CCC2(CC1)CC(O)c1ncccc1O2 (relative stereo)	0.008	0.031	0.008	> 10	> 100	> 10	> 10	> 30	> 30	> 10					7.3			
